Experimental data reported in ChEMBL document CHEMBL1151467, “Antimicrobial resistance genes associated with Salmonella enterica serovar newport isolates from food animals” (2008).
Values after ≈ are worked out from the molar mass of the structure shown.

Columns and labels:
[1] = test system: Salmonella enterica subsp. enterica; test: Antibacterial activity against blaCMY-expressing Salmonella enterica subsp. enterica serovar Newport isolated from food animals; assay type: functional
[2] = test system: Salmonella enterica subsp. enterica; test: Antibacterial activity against aacC-expressing Salmonella enterica subsp. enterica serovar Newport isolated from food animals; assay type: functional, organism-based
[3] = test system: Salmonella enterica subsp. enterica; test: Antibacterial activity against susceptible Salmonella enterica subsp. enterica serovar Newport isolated from food animals; assay type: functional, organism-based

Row | Molecule | MIC [1] [µg/mL] | MIC [2] [µg/mL] | MIC [3] [µg/mL]
1 | CO/N=C(\C(=O)N[C@@H]1C(=O)N2C(C(=O)O)=C(CSc3nc(=O)c(O)nn3C)CS[C@H]12)c1csc(N)n1 [CEFTRIAXONE] | 16 (≈ 28.9 µM) |  | 
2 | GENTAMICIN |  | 1 | < 0.25
